Here are results for 26 compounds from the Kinase Knowledgebase extract (Sharma et al. 2016).

A word on the IC50: it is the concentration that gives 50% inhibition.

The structures appear in SMILES notation. Bounds are passed on as bounds.

The target of the experiment is ROCK2 (human) (UniProt O75116). As to the kind of experiment: Inhibition of ROCK2 Kinase Activity.
Chain of ROCK2 (human) (O75116 whole entry, looked up): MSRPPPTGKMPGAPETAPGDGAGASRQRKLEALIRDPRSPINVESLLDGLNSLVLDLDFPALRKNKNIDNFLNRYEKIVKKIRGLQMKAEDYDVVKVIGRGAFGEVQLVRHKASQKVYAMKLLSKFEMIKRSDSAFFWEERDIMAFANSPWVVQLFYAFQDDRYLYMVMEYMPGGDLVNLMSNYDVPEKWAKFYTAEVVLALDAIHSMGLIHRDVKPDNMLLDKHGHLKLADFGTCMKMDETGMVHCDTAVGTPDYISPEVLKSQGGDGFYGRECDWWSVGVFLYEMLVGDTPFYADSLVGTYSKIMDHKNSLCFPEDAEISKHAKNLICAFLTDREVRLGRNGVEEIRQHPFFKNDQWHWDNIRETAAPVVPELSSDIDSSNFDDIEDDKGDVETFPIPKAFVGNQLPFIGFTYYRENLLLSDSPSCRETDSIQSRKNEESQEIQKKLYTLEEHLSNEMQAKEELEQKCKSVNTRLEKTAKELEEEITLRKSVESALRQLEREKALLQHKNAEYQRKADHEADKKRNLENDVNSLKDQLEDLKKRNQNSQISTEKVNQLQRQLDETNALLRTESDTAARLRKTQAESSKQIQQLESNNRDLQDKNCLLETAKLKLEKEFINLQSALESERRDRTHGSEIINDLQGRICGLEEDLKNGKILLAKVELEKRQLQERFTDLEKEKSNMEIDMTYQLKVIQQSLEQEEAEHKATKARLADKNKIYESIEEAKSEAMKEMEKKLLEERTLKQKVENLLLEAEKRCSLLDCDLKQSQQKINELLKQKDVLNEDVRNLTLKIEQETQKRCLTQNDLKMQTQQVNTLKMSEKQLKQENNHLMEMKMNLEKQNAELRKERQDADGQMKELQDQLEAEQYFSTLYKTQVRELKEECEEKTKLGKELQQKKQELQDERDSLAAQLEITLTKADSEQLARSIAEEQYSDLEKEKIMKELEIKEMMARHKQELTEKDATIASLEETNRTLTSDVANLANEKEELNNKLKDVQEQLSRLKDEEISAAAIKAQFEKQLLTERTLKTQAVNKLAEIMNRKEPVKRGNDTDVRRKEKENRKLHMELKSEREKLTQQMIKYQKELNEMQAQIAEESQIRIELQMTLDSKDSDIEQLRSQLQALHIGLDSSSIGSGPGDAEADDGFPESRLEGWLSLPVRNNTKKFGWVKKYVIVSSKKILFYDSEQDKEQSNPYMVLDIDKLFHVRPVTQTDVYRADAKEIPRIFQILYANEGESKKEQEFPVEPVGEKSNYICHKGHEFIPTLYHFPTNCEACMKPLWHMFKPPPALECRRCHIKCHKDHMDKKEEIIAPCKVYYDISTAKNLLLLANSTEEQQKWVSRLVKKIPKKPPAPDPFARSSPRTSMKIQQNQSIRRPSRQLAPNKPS
The compound `CC(C)[C@@H](N)C(=O)Nc1ccc2c(=O)[nH]cnc2c1` showed an IC50 below 1000 nM.
The figure for `CC(C)CC(N)C(=O)Nc1ccc2c(=O)[nH]cnc2c1` (stereo unspecified) is below 1000 nM.
With `CCOCCCNC(C(=O)Nc1cc2cc[nH]c(=O)c2cc1Cl)c1ccccc1` (stereo unspecified) the figure was below 1000 nM; with `NCCC(=O)Nc1cc2cc[nH]c(=O)c2cc1Cl`, below 1000 nM; with `O=C(Nc1cc2cc[nH]c(=O)c2cc1Cl)[C@@H]1[C@@H]2CNC[C@@H]21`, below 1000 nM.
`O=C(Nc1ccc2c(=O)[nH]cnc2c1)C1CCCNC1` (stereo unspecified) came in with an IC50 below 1000 nM.
The figure for `O=C(Nc1cc2cc[nH]c(=O)c2cc1Br)[C@H]1CNC[C@@H]1c1ccc(Cl)cc1` is below 1000 nM; for `NC(C(=O)Nc1ccc2c(=O)[nH]cnc2c1)c1ccccc1` (stereo unspecified) it is below 1000 nM.
Consider `O=C(COc1ccc(Cl)cc1)Nc1ccc2c(=O)[nH]ccc2c1`, for which the IC50 was below 1000 nM.
With `CC(C)(Oc1ccc(Cl)cc1)C(=O)Nc1ccc2c(=O)[nH]ccc2c1` the figure was below 1000 nM; with `O=C(CNCC1CCCCC1)Nc1cc2cc[nH]c(=O)c2cc1Cl`, below 1000 nM; with `O=C(Nc1cc2cc[nH]c(=O)c2cc1Cl)c1ccccc1Br`, below 1000 nM.
In the case of `CC1(C(=O)Nc2cc3cc[nH]c(=O)c3cc2Cl)CCN(S(C)(=O)=O)CC1`, the IC50 is below 1000 nM.
With `N[C@@H](C(=O)Nc1ccc2c(=O)[nH]cnc2c1)c1ccccc1` the figure was below 1000 nM; with `C[C@](O)(C(=O)Nc1cc2cc[nH]c(=O)c2cc1Cl)c1ccccc1`, below 1000 nM; with `C[C@@](O)(C(=O)Nc1cc2cc[nH]c(=O)c2cc1Cl)c1ccccc1`, below 1000 nM.
The figure for `CC(C)[C@@H](O)C(=O)Nc1cc2cc[nH]c(=O)c2cc1Cl` is below 1000 nM.
The figure for `CN(CC(=O)Nc1ccc2c(=O)[nH]cnc2c1)C1CCCCC1` is below 1000 nM; for `CN1CCC(C(=O)Nc2ccc3c(=O)[nH]ccc3c2)CC1` it is below 1000 nM; for `O=C(Nc1cc2nc[nH]c(=O)c2cc1Cl)C(NC1CC1)c1ccccc1` (stereo unspecified) it is below 1000 nM.
`O=C(Nc1cc2cc[nH]c(=O)c2cc1Cl)[C@H]1CNC[C@@H]1c1ccc(F)cc1` returned a half-maximal inhibitory concentration (IC50) below 1000 nM.
On to `O=C(Nc1cc2cc[nH]c(=O)c2cc1Cl)C1(c2ccccc2)CCNC1` (stereo unspecified), for which the IC50 is below 1000 nM.
The figure for `O=C(Nc1cc2cc[nH]c(=O)c2cc1Cl)C(O)c1ccccc1` (stereo unspecified) is below 1000 nM; for `N[C@H](Cc1ccc2ccccc2c1)C(=O)Nc1cc2cc[nH]c(=O)c2cc1Cl` it is below 1000 nM; for `CC(C)C(C(=O)Nc1cc2cc[nH]c(=O)c2cc1Cl)c1ccc(Cl)cc1` (stereo unspecified) it is below 1000 nM.
With `O=C(Nc1ccc2c(=O)[nH]ccc2c1)[C@@H]1CCCNC1` the figure was below 1000 nM.
